Data: patent publication US20010053772A1, “Aza analogues of alkyl lysophospholipids exert immunomodulatory effects” (priority 2000, published 2001)

Columns and labels:
[1] = tested on: TNF-α; conditions: cited from earlier work
[2] = tested on: TNF-α; assay: TNF-α secretion by human PBM, ELISA of supernatants; format: cell-based; conditions: for effect on BN52207 induced secretion of TNF-α: PBM 18 hours with BN52207 (5 μg/ml), emetine (1 μg/ml), cycloheximide (5 μg/ml)
Method: Also referring to FIG. 2, the AALP analogues, are therein shown to have immunoregulatory properties. The effect of AALP on the secretion of TNF-α, IL-1β, IL-6, and IL-10 cytokines by both resting and LPS and IFN-γ activated human peripheral blood derived monocytes. Human PBM were incubated for 18 hours at 37° C. in the absence or in the presence of different concentrations of AALP analogues. The cell-free supernatants were harvested and clarified by centrifugation and assessed for the presence of TNF-α, IL-1β, and IL-6 by Enzyme Linked Immunosorbant Assay (ELISA). For TNF-α, there was stimulation of secretion by all compounds at concentrations >0.6 μg/ml and up to 10 μg/ml. […] Similar findings were also obtained for IL-1β. There was no significant difference in the levels of stimulated TNF-α and IL-1β among the five AALP compounds. In contrast to TNF-α and IL-1β, there was no significant stimulation of IL-6 above background levels upon stimulation by any of the five AALP analogues. However, there was significant inhibition of IL-6 secretion at 10 μg/ml and the levels were below the spontaneous secretion of IL-6.
As a result of the similarity of results of the five AALP on PBM, BN52207 was selected to conduct the following experiments. However, it is to be understood that any other AALP analogue may be used to obtain a similar result. Now referring to FIG. 3, human PBM were incubated for 18 hours at 37° C. in the presence or absence of different concentration of BN52207. The PBM were left untreated or treated with IFN-γ (500 U/ml) or LPS (1 μg/ml) added at the initiation of the culture. The supernatants were harvested, clarified by centrifugation, and stored at −70° C. The levels of TNF-α with IFN-γ (FIG. 3A), LPS (FIG. 3B), or BN+LPS (FIG. 3C) activated PBM were assessed by ELISA.
BN52207 potentiated the secretion of TNF-α from IFN-γ-activated PBM and LPS-activated PBM. […] Now referring to FIG. 4, to confirm de novo synthesis of TNF-α mRNA PBM were treated with protein synthesis inhibitors. PBM were incubated for 18 hours with BN52207 (5 μg/ml) in the absence or presence of LPS (1 μg/ml), LPS (1 μg/ml) plus pentoxifylline (50 μg/ml), emetine (1 μg/ml), and cycloheximide (5 μg/ml). The cell-free supernatants were collected and clarified by centrifugation and the level of TNF-α in the supernatants was assessed by ELISA.
Now referring to FIGS. 8 A, B, and C, the kinetics of induction/inhibition of cytokine secretion by AALP were examined. […]
Human peripheral blood was obtained from normal volunteers as per HSPC guidelines of UCLA. […] The adherent cells prepared by this procedure were primarily monocytes (>90%) as determined by esterase staining and flow cytometry using markers for monocytes, T cells, B cells, and NK cells. […]

## CC1C(=O)OC2C(O)C34C5CC(C(C)(C)C)C36C(OC(=O)C6O)OC4(C(=O)O5)C12O (centres unmarked) [BN52021]
[1]
  effect on TNF-α augmented production by PAF in monocytes: blocks

## C[C@@H]1C[C@@H]([C@H](O)CC2CC(=O)NC(=O)C2)C(=O)[C@@H](C)C1 [CHX, cycloheximide]
[2]; FIG. 4
  effect on BN52207 induced secretion of TNF-α: inhibited

## CC[C@H]1CN2CCc3cc(OC)c(OC)cc3[C@@H]2C[C@@H]1C[C@H]1NCCc2cc(OC)c(OC)cc21 [emetine]
[2]; FIG. 4
  effect on BN52207 induced secretion of TNF-α: inhibited

## CC(=O)CCCCn1c(=O)c2c(ncn2C)n(C)c1=O [pentoxifylline]
[2]; PBM 18 hours, BN52207 (5 μg/ml) + LPS (1 μg/ml) + pentoxifylline (50 μg/ml), FIG. 4
  effect on BN enhanced stimulation of TNF-α secretion by LPS stimulated PBM: inhibited

## IFN-γ: recombinant interferon-γ, a gift from Genentech
[2]; IFN-γ (500 U/ml), 18 hours, FIG. 3A
  TNF-α secretion on stimulation of PBM with IFN-γ alone: results in the secretion of TNF-α
